Consider four compounds from US6559159B2, “Kappa opioid receptor ligands” (Research Triangle Institute, priority 2001, dated 2003).

Test [1] deals with T1, kappa opioid receptor (Homo sapiens, UniProt P41145). Put plainly: Radioligand competitive binding, [3H]U69,593. The following applies: for Ki: radioligand binding, kappa, ± SD; for delta/kappa selectivity ratio (binding) / mu/kappa selectivity ratio (binding): column head not printed in Table 1.
For test [2], the target named is T2, delta opioid receptor (Homo sapiens, UniProt P41143). Nature of the test: Inhibition of SNC-80-stimulated [35S]GTPγS binding in cloned human opioid receptors. The arrangement: expressed in transfected cells. The test is classed as biochemical. The following applies: 50% attenuation of SNC80 (10 μM)-stimulated [35S]GTP-γ-S binding, ± SD, read-out: Apparent Functional Ki SNC-80. (In general: GTPγS is a poorly hydrolysed GTP analogue; its binding reports G protein activation.)

In test [3] the target is T3, mu opioid receptor (Homo sapiens, UniProt P35372). Put plainly: Inhibition of DAMGO-stimulated [35S]GTPγS binding in cloned human opioid receptors. The test is classed as biochemical. The following applies: 50% attenuation of DAMGO (10 μM)-stimulated [35S]GTP-γ-S binding, ± SD, read-out: Apparent Functional Ki DAMGO. The arrangement: expressed in transfected cells.
Test [4] deals with T4, kappa opioid receptor (Cavia porcellus, UniProt P41144).
T4 construct: as measured in guinea pig caudate membranes; from tissue; host or cells: guinea pig caudate membranes
Put plainly: Inhibition of U69,593-stimulated [35S]GTPγS binding in guinea pig caudate. The test is classed as biochemical. The following applies: for Ki: 50% attenuation of U69,593 (10 μM)-stimulated [35S]GTP-γ-S binding, ± SD, read-out: Apparent Functional Ki U69,593; for δ/κ / μ/κ: ratio of apparent functional Ki.

Test [5] deals with T2, delta opioid receptor. Nature of the test: Radioligand competitive binding, [3H]DADLE. The following applies: for Ki: delta, ± SD.
The target in test [6] is T5, delta opioid receptor (Cavia porcellus, UniProt A0A286XTF2).
T5 construct: as measured in guinea pig caudate membranes; from tissue; host or cells: guinea pig caudate membranes
Put plainly: Inhibition of SNC-80-stimulated [35S]GTPγS binding in guinea pig caudate. The test is classed as biochemical. To be noted: 50% attenuation of SNC80 (10 μM)-stimulated [35S]GTP-γ-S binding, ± SD, read-out: Apparent Functional Ki SNC-80.

Test [7] addresses T1, kappa opioid receptor. Put plainly: Inhibition of U69,593-stimulated [35S]GTPγS binding in cloned human opioid receptors. It counts as biochemical. The arrangement: expressed in transfected cells.
Test [8] addresses mu opioid receptor (Cavia porcellus, UniProt A0ACM8Q262). Nature of the test: Inhibition of DAMGO-stimulated [35S]GTPγS binding in guinea pig caudate. The following applies: 50% attenuation of DAMGO (10 μM)-stimulated [35S]GTP-γ-S binding, ± SD, read-out: Apparent Functional Ki DAMGO. It counts as biochemical.
Test [9] has as its target T3, mu opioid receptor. Put plainly: Radioligand competitive binding, [3H]DAMGO. To be noted: for Ki: radioligand binding, mu, ± SD.
The mark [10] stands for this setting: ratio of apparent functional Ki, cloned human receptors.

For `C[C@@H]1CN(CCCc2ccccc2)[C@H]2C[C@H](NC(=O)CCN3CCCCC3)C[C@]1(c1cccc(O)c1)C2` [Compound 12, (−)-N-[(1R,4S,5S, 7R)-5-(3-hydroxy)phenyl-4-methyl-2-(3-phenylpropyl)-2-azabicyclo[3.3.1]non-7-yl]-3-(1-piperidinyl)propanamide], the Ki was 4.3 nM on kappa opioid receptor [1]; above 100 nM on delta opioid receptor [2]; 35.8 ± 6.8 nM at mu opioid receptor [3]; 0.48 ± 0.06 nM on kappa opioid receptor [4]; above 3400 nM at delta opioid receptor [5]; above 300 nM at delta opioid receptor [6]. Moreover, the Ki on kappa opioid receptor [7] (cloned human opioid receptors, 50% attenuation of U69,593 (10 μM)-stimulated [35S]GTP-γ-S binding, ± SD, read-out: Apparent Functional Ki U69,593) stood at 0.56 ± 0.08 nM; at mu opioid receptor [8] it was 33.6 ± 10.4 nM; on mu opioid receptor [9], 147 nM. Moreover, at kappa opioid receptor [1] (ratio of binding Ki), the “delta/kappa selectivity profile (binding, text)” value was above 790 fold. In addition, the “delta/kappa selectivity ratio (binding)” value at kappa opioid receptor [1] (ratio of binding Ki) was above 790. In addition, the “mu/kappa selectivity ratio (binding)” value at kappa opioid receptor [1] (ratio of binding Ki) was determined as 34. Besides, the results for the δ/κ at kappa opioid receptor [4] and on kappa opioid receptor [7] (setting [10]) were above 625 and above 178, respectively. The results for the μ/κ at kappa opioid receptor [4] and at kappa opioid receptor [7] (setting [10]) were 70 and 64, respectively. Further, the “affinity for the delta receptor (in words)” value on delta opioid receptor [5] (within the testing parameters) is recorded as “no affinity”. For the same compound, the “affinity for the mu receptor lower than compound 10” value at mu opioid receptor [9] (binding Ki of 12 relative to 10) is listed as around 50 fold.
`C[C@@H]1CN(CCCc2ccccc2)[C@H]2C[C@H](NC(=O)CCCN(C)C)C[C@]1(c1cccc(O)c1)C2` [Compound 13, 4-(dimethylamino)-N-[(1R,4S,5S,7R)-5-(3-hydroxyphenyl)-4-methyl-2-(3-phenylpropyl)-2-azabicyclo[3.3.1]non-7-yl]butanamide]: the Ki was determined as 11.9 ± 0.65 nM at kappa opioid receptor [1], 1460 ± 113 nM on delta opioid receptor [5] and 57 ± 5.4 nM on mu opioid receptor [9]. In addition, at kappa opioid receptor [1] (ratio of binding Ki), the “delta/kappa selectivity ratio (binding)” value is 122. Also, the “mu/kappa selectivity ratio (binding)” value on kappa opioid receptor [1] (ratio of binding Ki) is listed as 5.
`Oc1ccc2c3c1O[C@H]1c4[nH]c5c(c4C[C@@]4(O)[C@@H](C2)N(CC2CC2)CC[C@]314)C[C@@]1(O)[C@H]2Cc3ccc(O)c4c3[C@@]1(CCN2CC1CC1)[C@H]5O4` [6, nor-BNI, norbinaltorphimine]: the Ki on delta opioid receptor [6] amounted to 86 ± 7.2 nM.
Turning to `CC1C2CCCC1(c1cccc(O)c1)CCN2CCc1ccccc1` (stereo not drawn) [Compound 10, N-phenethyl-9β-methyl-5-(3-hydroxyphenyl)morphan, reference compound], the Ki on kappa opioid receptor [1] came to 14.5 ± 0.99 nM; at kappa opioid receptor [4], 1.34 ± 0.084 nM; on delta opioid receptor [5], 272 ± 30 nM; at delta opioid receptor [6], 12.6 ± 1.01 nM; on mu opioid receptor [8], 0.338 ± 0.028 nM; at mu opioid receptor [9] it was 3.11 nM. Further, the “delta/kappa selectivity ratio (binding)” value on kappa opioid receptor [1] (ratio of binding Ki) worked out at 19. The “mu/kappa selectivity ratio (binding)” value at kappa opioid receptor [1] (ratio of binding Ki) was found to be 0.21. The δ/κ at kappa opioid receptor [4] amounted to 9.4. Moreover, the μ/κ on kappa opioid receptor [4] is on record as 0.25.
